From patent US20150353495A1 (PORTOLA PHARMACEUTICALS, INC., priority 2010, published 2015) come the findings set out here.

pIC50: −log10 of the molar value.

Type in all cases: biochemical
Test [1] has as its target T1, JAK3 (Homo sapiens, UniProt P52333).
T1 construct: 5 μl of catalytic domain recombinant Kinase enzyme+Tyr peptide substrate (Invitrogen, CA); purchased Invitrogen
Kind of test: Z'-LYTE kinase assay JAK3. The method, boiled down: (§1)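 Z′-LYTE FRET, Tyr6 peptide, recombinant catalytic domain + ATP, 1 h RT, 1% DMSO final, duplicates; protease development 1 h RT; fluorescence read.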

For test [2], the target named is T2, JAK2 (Homo sapiens, UniProt O60674).
T2 construct: 5 μl of catalytic domain recombinant Kinase enzyme+Tyr peptide substrate (Invitrogen, CA); purchased Invitrogen
T2 sequence (O60674 849-1124 limits assumed): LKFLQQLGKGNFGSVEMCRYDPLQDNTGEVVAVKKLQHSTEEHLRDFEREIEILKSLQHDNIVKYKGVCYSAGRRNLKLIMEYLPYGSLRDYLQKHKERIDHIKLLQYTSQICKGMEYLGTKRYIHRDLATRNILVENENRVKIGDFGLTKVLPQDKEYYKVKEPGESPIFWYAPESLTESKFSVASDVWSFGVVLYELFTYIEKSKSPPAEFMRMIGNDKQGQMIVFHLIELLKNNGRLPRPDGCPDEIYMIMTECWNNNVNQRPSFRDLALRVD
Kind of test: Z'-LYTE kinase assay JAK2. The method, boiled down:
as §1

Test [3] addresses T3, JAK1 (Homo sapiens, UniProt P23458).
T3 construct: 5 μl of catalytic domain recombinant Kinase enzyme+Tyr peptide substrate (Invitrogen, CA); purchased Invitrogen
Description: Z'-LYTE kinase assay JAK1. The method, boiled down:
as §1

T3 sequence (P23458 875-1153 limits assumed): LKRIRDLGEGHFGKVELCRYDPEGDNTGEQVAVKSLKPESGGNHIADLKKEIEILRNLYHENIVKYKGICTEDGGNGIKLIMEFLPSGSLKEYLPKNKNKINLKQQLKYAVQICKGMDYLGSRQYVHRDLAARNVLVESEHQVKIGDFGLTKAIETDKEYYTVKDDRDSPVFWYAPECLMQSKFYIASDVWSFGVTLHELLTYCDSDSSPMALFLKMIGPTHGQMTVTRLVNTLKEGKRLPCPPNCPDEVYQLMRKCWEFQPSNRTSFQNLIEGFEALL
T1 sequence (P52333 822-1111 limits assumed): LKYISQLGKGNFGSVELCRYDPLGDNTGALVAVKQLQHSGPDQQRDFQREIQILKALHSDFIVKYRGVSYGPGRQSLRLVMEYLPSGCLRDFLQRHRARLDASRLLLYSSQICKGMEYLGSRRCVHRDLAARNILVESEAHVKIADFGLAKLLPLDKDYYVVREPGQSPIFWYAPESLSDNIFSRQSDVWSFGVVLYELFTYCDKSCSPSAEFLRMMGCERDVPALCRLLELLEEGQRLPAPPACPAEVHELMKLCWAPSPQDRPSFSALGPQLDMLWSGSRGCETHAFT

The term pIC50 denotes the IC50 on a negative log10 scale, so that one unit is a factor of ten. Low readings indicate a large IC50, high ones a small IC50. For `CCC(=O)N(C)c1ccc(Nc2cc(NCc3cccc4cc[nH]c34)c(C(N)=O)cn2)cc1` [Example 477, 4-((1H-indol-7-yl)methylamino)-6-(4-(N-methylpropionamido)phenylamino)nicotinamide], the pIC50 in test [1] is 7.00 to 8.00; in test [2], 6.00 to 7.00; in test [3] it was less than 6.00.

For `NC(=O)c1cnc(Nc2ccc(C(=O)N3CCC3)cc2)cc1NCC1CCCC1` [Example 48, 6-(4-(azetidine-1-carbonyl)phenylamino)-4-(cyclopentylmethylamino)nicotinamide], the pIC50 in test [1] was 7.00 to 8.00; in test [2], 6.00 to 7.00; in test [3], 6.00 to 7.00.

With `CCC(=O)N1CCC(c2ccc(Nc3cc(NCc4cccc(F)c4)c(C(N)=O)cn3)cc2)CC1` [Example 145, 4-(3-fluorobenzylamino)-6-(4-(1-propionylpiperidin-4-yl)phenylamino)nicotinamide], the pIC50 in test [1] was 8.00 to 9.00; in test [2], 7.00 to 8.00; in test [3], less than 6.00.

For the compound `COc1ccc(Nc2cc(NCc3cncnc3)c(C(N)=O)cn2)cc1` [Example 286, 6-(4-methoxyphenylamino)-4-(pyrimidin-5-ylmethylamino)nicotinamide], the figures for the pIC50 in test [1], in test [2] and in test [3] were 6.00 to 7.00, less than 6.00 and less than 6.00, respectively.

For `COCC(=O)N1CCC[C@H](CNc2cc(Nc3ccc(C(=O)N(C)C)cc3)ncc2C(N)=O)C1` [Example 266, (R)-6-(4-(dimethylcarbamoyl)phenylamino)-4-((1-(2-methoxyacetyl)piperidin-3-yl)methylamino)nicotinamide], the pIC50 was 7.00 to 8.00 in test [1], less than 6.00 in test [2] and less than 6.00 in test [3].

On to `CS(=O)(=O)N1CC(c2ccc(Nc3cc(NCc4ccccc4)c(C(N)=O)cn3)cc2)C1` [Example 335, 4-(benzylamino)-6-(4-(1-(methylsulfonyl)azetidin-3-yl)phenylamino)nicotinamide], for which the negative logarithm of the IC50 (pIC50) in test [1] was 7.00 to 8.00; in test [2], 6.00 to 7.00; in test [3] it was 6.00 to 7.00.

As for `N#CCOc1cccc(Nc2cc(NCc3ccccc3)c(C(N)=O)cn2)c1` [Example 383], the figures for the pIC50 in test [1], in test [2] and in test [3] were 7.00 to 8.00, 6.00 to 7.00 and 6.00 to 7.00, respectively.

Take `NC(=O)c1cnc(Nc2ccc3cccnc3c2)cc1NCc1ccccc1` [Example 87, 4-(benzylamino)-6-(quinolin-7-ylamino)nicotinamide]: the figures for the pIC50 in test [1], in test [2] and in test [3] were 6.00 to 7.00, less than 6.00 and less than 6.00, respectively.

As to `COC(=O)N(C)c1ccc(Nc2cc(NCc3cccc(F)n3)c(C(N)=O)cn2)cc1` [Example 487], the results for the pIC50 in test [1], in test [2] and in test [3] were 7.00 to 8.00, 6.00 to 7.00 and 6.00 to 7.00, respectively.

Consider `CCC(=O)N1CCC(CNc2cc(Nc3ccc(C4CCOCC4)cc3)ncc2C(N)=O)CC1` [Example 161], for which the pIC50 in test [1], in test [2] and in test [3] was less than 6.00 each time.

Turning to `CC(=O)N1CCN(c2cccc(Nc3cc(NC4(c5ccccc5)CC4)c(C(N)=O)cn3)c2)CC1` [Example 371, 6-(3-(4-acetylpiperazin-1-yl)phenylamino)-4-(1-phenylcyclopropylamino)nicotinamide], the pIC50 is 7.00 to 8.00 in test [1], 6.00 to 7.00 in test [2] and less than 6.00 in test [3].

Regarding `COc1ccc(Nc2cc(NCc3cccc4ccn(C)c34)c(C(N)=O)cn2)cc1` [Example 317, 6-(4-methoxyphenylamino)-4-((1-methyl-1H-indol-7-yl)methylamino)nicotinamide], the pIC50 is 6.00 to 7.00 in test [1], less than 6.00 in test [2] and less than 6.00 in test [3].

Consider `NC(=O)c1cnc(Nc2ccc(CC(=O)NCC(F)(F)F)cc2)cc1NCc1ccccc1` [Example 341, 4-(benzylamino)-6-(4-(2-oxo-2-(2,2,2-trifluoroethylamino)ethyl)phenylamino)nicotinamide], for which the pIC50 was 8.00 to 9.00 in test [1], 6.00 to 7.00 in test [2] and 6.00 to 7.00 in test [3].

With `COc1ccc(Nc2cc(NC[C@H]3CCCN(C(C)=O)C3)c(C(N)=O)cn2)cc1` [Example 54], the pIC50 is 7.00 to 8.00 in test [1], 6.00 to 7.00 in test [2] and less than 6.00 in test [3].

Consider `CN1CCC(C(=O)Nc2cc(Nc3cc(NC4(c5ccccc5)CC4)c(C(N)=O)cn3)ccc2Cl)CC1` [Example 136, 6-(4-chloro-3-(1-methylpiperidine-4-carboxamido)phenylamino)-4-(1-phenylcyclopropylamino)nicotinamide], for which the figures for the pIC50 in test [1], in test [2] and in test [3] were 7.00 to 8.00, less than 6.00 and less than 6.00, respectively.

As to `COc1ccc(Nc2cc(NCc3cccc(S(C)(=O)=O)c3)c(C(N)=O)cn2)cc1` [Example 301, 6-(4-methoxyphenylamino)-4-(3-(methylsulfonyl)benzylamino)nicotinamide], the pIC50 in test [1] was 7.00 to 8.00; in test [2], less than 6.00; in test [3], less than 6.00.

Regarding `CC(=O)N(C)c1ccc(Nc2cc(NCc3cccc4cc[nH]c34)c(C(N)=O)cn2)cc1` [Example 470, 4-((1H-indol-7-yl)methylamino)-6-(4-(N-methylacetamido)phenylamino)nicotinamide], the pIC50 is 7.00 to 8.00 in test [1], 6.00 to 7.00 in test [2] and less than 6.00 in test [3].

Turning to `CCC(=O)N1CCC(c2ccc(Nc3cc(N[C@H](C)C(C)(C)C)c(C(N)=O)cn3)cc2)CC1` [Example 190, (R)-4-(3,3-dimethylbutan-2-ylamino)-6-(4-(1-propionylpiperidin-4-yl)phenylamino)nicotinamide], the pIC50 in test [1] was 8.00 to 9.00; in test [2], 7.00 to 8.00; in test [3], 7.00 to 8.00.

Regarding `CCC(=O)N(C)c1ccc(Nc2cc(NCc3cccc(F)n3)c(C(N)=O)cn2)cc1` [Example 488, 4-((6-fluoropyridin-2-yl)methylamino)-6-(4-(N-methylpropionamido)phenylamino)nicotinamide], the pIC50 in test [1] is 7.00 to 8.00; in test [2], 6.00 to 7.00; in test [3], 6.00 to 7.00.

Regarding `CC(C)(C)CNc1cc(Nc2ccc(C3CCOCC3)cc2)ncc1C(N)=O` [Example 155, 4-(neopentylamino)-6-(4-(tetrahydro-2H-pyran-4-yl)phenylamino)nicotinamide], the pIC50 in test [1], in test [2] and in test [3] was 6.00 to 7.00 throughout.

As to `COc1cc(Nc2cc(NC[C@H]3CCCN(C(C)=O)C3)c(C(N)=O)cn2)ccc1C(=O)N(C)C` [Example 441, (R)-4-((1-acetylpiperidin-3-yl)methylamino)-6-(4-(dimethylcarbamoyl)-3-methoxyphenylamino)nicotinamide], the values for the pIC50 in test [1], in test [2] and in test [3] were 7.00 to 8.00, 6.00 to 7.00 and less than 6.00, respectively.

In the case of `COc1ccc(Nc2cc(Nc3ccc(C)cc3)c(C(N)=O)cn2)cc1` [Example 33, 6-(4-methoxyphenylamino)-4-(p-tolylamino)nicotinamide], the pIC50 in test [1], in test [2] and in test [3] was less than 6.00 each time.

Consider `CS(=O)(=O)N1CCC(Nc2cc(Nc3ccc(C4CCOCC4)cc3)ncc2C(N)=O)CC1` [Example 165, 4-(1-(methylsulfonyl)piperidin-4-ylamino)-6-(4-(tetrahydro-2H-pyran-4-yl)phenylamino)nicotinamide], for which the negative-log IC50 (pIC50) in test [1] was 6.00 to 7.00; in test [2], less than 6.00; in test [3], 6.00 to 7.00.

For the compound `CC(=O)N1CC(c2ccc(Nc3cc(NCc4ccccc4)c(C(N)=O)cn3)cc2)C1` [Example 324, 6-(4-(1-acetylazetidin-3-yl)phenylamino)-4-(benzylamino)nicotinamide], the pIC50 in test [1] is 8.00 to 9.00; in test [2], 6.00 to 7.00; in test [3], 6.00 to 7.00.

On to `NC(=O)c1cnc(Nc2ccc(C3CCNCC3)cc2)cc1NCc1cc(F)ccc1F` [Example 214, 4-(2,5-difluorobenzylamino)-6-(4-(piperidin-4-yl)phenylamino)nicotinamide], for which the pIC50 was 8.00 to 9.00 in test [1], 7.00 to 8.00 in test [2] and 7.00 to 8.00 in test [3].

For the compound `Cc1ccc(Nc2cc(NCc3cncc(F)c3)c(C(N)=O)cn2)cc1` [Example 311, 4-((5-fluoropyridin-3-yl)methylamino)-6-(p-tolylamino)nicotinamide], the negative-log IC50 (pIC50) in test [1] is 7.00 to 8.00; in test [2], 6.00 to 7.00; in test [3], 6.00 to 7.00.

In the case of `CN(C)C(=O)C1CCN(c2ccc(Nc3cc(NCc4cccc5ccsc45)c(C(N)=O)cn3)cc2)CC1` [Example 350, 4-(benzo[b]thiophen-7-ylmethylamino)-6-(4-(4-(dimethylcarbamoyl)piperidin-1-yl)phenylamino)nicotinamide], the pIC50 in test [1] is more than 9.00; in test [2] it was 7.00 to 8.00; in test [3], 7.00 to 8.00.

As to `CC(=O)Nc1ccc(Nc2cc(NCc3cccc4ccsc34)c(C(N)=O)cn2)cc1` [Example 471, 6-(4-acetamidophenylamino)-4-(benzo[b]thiophen-7-ylmethylamino)nicotinamide], the pIC50 in test [1] is 8.00 to 9.00; in test [2], 7.00 to 8.00; in test [3], 7.00 to 8.00.

Regarding `NC(=O)c1cnc(Nc2cccc(OCC(=O)N3CCOCC3)c2)cc1NC1(c2ccccc2)CC1` [Example 134, 6-(3-(2-morpholino-2-oxoethoxy)phenylamino)-4-(1-phenylcyclopropylamino)nicotinamide], the pIC50 in test [1] is 7.00 to 8.00; in test [2], less than 6.00; in test [3] it was less than 6.00.

As for `CN(C)C(=O)c1ccc(Nc2cc(NCc3ccncn3)c(C(N)=O)cn2)cc1` [Example 299, 6-(4-(dimethylcarbamoyl)phenylamino)-4-(pyrimidin-4-ylmethylamino)nicotinamide], the negative-log IC50 (pIC50) in test [1], in test [2] and in test [3] was less than 6.00 throughout.
